Source: ChEMBL document CHEMBL2069240, “Design, solvent free synthesis, and antimicrobial evaluation of 1,4 dihydropyridines” (2012)
In brackets after ≈: the same amount, converted by molar mass.

Tests used:
Escherichia coli [1] = assay: Antibacterial activity against Escherichia coli ATCC 25922; type: functional
Citrobacter koseri = assay: Antibacterial activity against Citrobacter koseri ATCC 27028; type: functional
Klebsiella pneumoniae [2] = assay: Antibacterial activity against Klebsiella pneumoniae ATCC 7761; type: functional
Salmonella typhi = assay: Antibacterial activity against Salmonella typhi ATCC 700931; type: functional, Salmonella enterica subsp. enterica serovar Typhi; conditions: Salmonella enterica
Shigella dysenteriae = assay: Antibacterial activity against Shigella dysenteriae ATCC 32412; type: functional
Pseudomonas aeruginosa = assay: Antibacterial activity against Pseudomonas aeruginosa ATCC 27853; type: functional
Staphylococcus aureus = assay: Antibacterial activity against Staphylococcus aureus ATCC 25923; type: functional
Enterococcus faecalis = assay: Antibacterial activity against Enterococcus faecalis ATCC 51299; type: functional
Bacillus subtilis = assay: Antibacterial activity against Bacillus subtilis ATCC 9372; type: functional
Streptococcus pyogenes = assay: Antibacterial activity against Streptococcus pyogenes ATCC 19615; type: functional
Escherichia coli [3] = assay: Antibacterial activity against ampicillin-resistant Escherichia coli clinical isolate; type: functional
Klebsiella pneumoniae [4] = assay: Antibacterial activity against ampicillin-resistant Klebsiella pneumoniae clinical isolate; type: functional
Escherichia coli [5] = assay: Ratio of ampicillin MIC to compound MIC for ampicillin-resistant Escherichia coli clinical isolate; type: functional
Klebsiella pneumoniae [6] = assay: Ratio of ampicillin MIC to compound MIC for ampicillin-resistant Klebsiella pneumoniae clinical isolate; type: functional

SMILES	MIC (Escherichia coli [1])	MIC (Citrobacter koseri)	MIC (Klebsiella pneumoniae [2])	MIC (Salmonella typhi)	MIC (Shigella dysenteriae)	MIC (Pseudomonas aeruginosa)	MIC (Staphylococcus aureus)	MIC (Enterococcus faecalis)	MIC (Bacillus subtilis)	MIC (Streptococcus pyogenes)	MIC (Escherichia coli [3])	MIC (Klebsiella pneumoniae [4])	Ratio (Escherichia coli [5])	Ratio (Klebsiella pneumoniae [6])
CCOC(=O)C1=C(C)NC(C)=C(C(=O)OCC)C1c1cccc(O)c1	500 µg/mL (≈ 1450 µM)	500 µg/mL (≈ 1450 µM)	500 µg/mL (≈ 1450 µM)	500 µg/mL (≈ 1450 µM)	125 µg/mL (≈ 362 µM)	1250 µg/mL (≈ 3620 µM)	1250 µg/mL (≈ 3620 µM)	1250 µg/mL (≈ 3620 µM)	1250 µg/mL (≈ 3620 µM)	1250 µg/mL (≈ 3620 µM)	125 µg/mL (≈ 362 µM)	62.5 µg/mL (≈ 181 µM)	4	4
CCOC(=O)C1=C(C)NC(C)=C(C(=O)OCC)C1c1cccc([N+](=O)[O-])c1	2500 µg/mL (≈ 6680 µM)	2500 µg/mL (≈ 6680 µM)	2500 µg/mL (≈ 6680 µM)	1250 µg/mL (≈ 3340 µM)	2500 µg/mL (≈ 6680 µM)	5000 µg/mL (≈ 13400 µM)	1250 µg/mL (≈ 3340 µM)	2500 µg/mL (≈ 6680 µM)	2500 µg/mL (≈ 6680 µM)	2500 µg/mL (≈ 6680 µM)	125 µg/mL (≈ 334 µM)	125 µg/mL (≈ 334 µM)	4	4
CCOC(=O)C1=C(C)NC(C)=C(C(=O)OCC)C1c1ccc(Cl)cc1	125 µg/mL (≈ 344 µM)	125 µg/mL (≈ 344 µM)	125 µg/mL (≈ 344 µM)	500 µg/mL (≈ 1370 µM)	500 µg/mL (≈ 1370 µM)	500 µg/mL (≈ 1370 µM)	125 µg/mL (≈ 344 µM)	125 µg/mL (≈ 344 µM)	500 µg/mL (≈ 1370 µM)	125 µg/mL (≈ 344 µM)	62.5 µg/mL (≈ 172 µM)	31.2 µg/mL (≈ 85.9 µM)	4	4
CCOC(=O)C1=C(C)NC(C)=C(C(=O)OCC)C1c1ccccc1Cl	250 µg/mL (≈ 687 µM)	250 µg/mL (≈ 687 µM)	250 µg/mL (≈ 687 µM)	250 µg/mL (≈ 687 µM)	250 µg/mL (≈ 687 µM)	250 µg/mL (≈ 687 µM)	125 µg/mL (≈ 344 µM)	125 µg/mL (≈ 344 µM)	250 µg/mL (≈ 687 µM)	125 µg/mL (≈ 344 µM)	125 µg/mL (≈ 344 µM)	125 µg/mL (≈ 344 µM)	4	4
CCOC(=O)C1=C(C)NC(C)=C(C(=O)OCC)C1c1ccccc1O	250 µg/mL (≈ 724 µM)	125 µg/mL (≈ 362 µM)	125 µg/mL (≈ 362 µM)	500 µg/mL (≈ 1450 µM)	250 µg/mL (≈ 724 µM)	250 µg/mL (≈ 724 µM)	250 µg/mL (≈ 724 µM)	250 µg/mL (≈ 724 µM)	250 µg/mL (≈ 724 µM)	250 µg/mL (≈ 724 µM)	62.5 µg/mL (≈ 181 µM)	31.2 µg/mL (≈ 90.5 µM)	4	4
CCOC(=O)C1=C(C)NC(C)=C(C(=O)OCC)C1c1ccc(OC)cc1	1250 µg/mL (≈ 3480 µM)	1250 µg/mL (≈ 3480 µM)	1250 µg/mL (≈ 3480 µM)	5000 µg/mL (≈ 13900 µM)	2500 µg/mL (≈ 6960 µM)	5000 µg/mL (≈ 13900 µM)	2500 µg/mL (≈ 6960 µM)	2500 µg/mL (≈ 6960 µM)	1250 µg/mL (≈ 3480 µM)	2500 µg/mL (≈ 6960 µM)	62.5 µg/mL (≈ 174 µM)	125 µg/mL (≈ 348 µM)	4	4
CCOC(=O)C1=C(C)NC(C)=C(C(=O)OCC)C1c1ccc(OC)c(OC)c1	2500 µg/mL (≈ 6420 µM)	2500 µg/mL (≈ 6420 µM)	2500 µg/mL (≈ 6420 µM)	1250 µg/mL (≈ 3210 µM)	1250 µg/mL (≈ 3210 µM)	1250 µg/mL (≈ 3210 µM)	1250 µg/mL (≈ 3210 µM)	1250 µg/mL (≈ 3210 µM)	125 µg/mL (≈ 321 µM)	1250 µg/mL (≈ 3210 µM)	125 µg/mL (≈ 321 µM)	125 µg/mL (≈ 321 µM)	4	4
CC1(C)S[C@@H]2[C@H](NC(=O)[C@H](N)c3ccccc3)C(=O)N2[C@H]1C(=O)O [AMPICILLIN]	200 µg/mL (≈ 572 µM)	25 µg/mL (≈ 71.5 µM)	500 µg/mL (≈ 1430 µM)	5 µg/mL (≈ 14.3 µM)	50 µg/mL (≈ 143 µM)	2 µg/mL (≈ 5.72 µM)	10 µg/mL (≈ 28.6 µM)	15 µg/mL (≈ 42.9 µM)	25 µg/mL (≈ 71.5 µM)	0.06 µg/mL (≈ 0.172 µM)	> 2000 µg/mL	> 2000 µg/mL		
CCOC(=O)C1=C(C)N=C(C)/C(=C(/O)OCC)C1	1250 µg/mL (≈ 4930 µM)	1250 µg/mL (≈ 4930 µM)	1250 µg/mL (≈ 4930 µM)	2500 µg/mL (≈ 9870 µM)	1250 µg/mL (≈ 4930 µM)	1250 µg/mL (≈ 4930 µM)	1250 µg/mL (≈ 4930 µM)	1250 µg/mL (≈ 4930 µM)	1250 µg/mL (≈ 4930 µM)	1250 µg/mL (≈ 4930 µM)	125 µg/mL (≈ 493 µM)	62.5 µg/mL (≈ 247 µM)	4	4
CCOC(=O)C1=C(C)NC(C)=C(C(=O)OCC)C1c1cc(OC)ccc1OC	500 µg/mL (≈ 1280 µM)	250 µg/mL (≈ 642 µM)	250 µg/mL (≈ 642 µM)	500 µg/mL (≈ 1280 µM)	500 µg/mL (≈ 1280 µM)	2500 µg/mL (≈ 6420 µM)	250 µg/mL (≈ 642 µM)	250 µg/mL (≈ 642 µM)	2500 µg/mL (≈ 6420 µM)	250 µg/mL (≈ 642 µM)	250 µg/mL (≈ 642 µM)	125 µg/mL (≈ 321 µM)	4	4
CCOC(=O)C1=C(C)NC(C)=C(C(=O)OCC)C1c1ccc(O)cc1	2500 µg/mL (≈ 7240 µM)	2500 µg/mL (≈ 7240 µM)	2500 µg/mL (≈ 7240 µM)	5000 µg/mL (≈ 14500 µM)	5000 µg/mL (≈ 14500 µM)	5000 µg/mL (≈ 14500 µM)	2500 µg/mL (≈ 7240 µM)	2500 µg/mL (≈ 7240 µM)	2500 µg/mL (≈ 7240 µM)	2500 µg/mL (≈ 7240 µM)	125 µg/mL (≈ 362 µM)	125 µg/mL (≈ 362 µM)	4	4
CCOC(=O)C1=C(C)NC(C)=C(C(=O)OCC)C1c1cc(OC)c(OC)c(OC)c1	2500 µg/mL (≈ 5960 µM)	2500 µg/mL (≈ 5960 µM)	2500 µg/mL (≈ 5960 µM)	1250 µg/mL (≈ 2980 µM)	1250 µg/mL (≈ 2980 µM)	2500 µg/mL (≈ 5960 µM)	1250 µg/mL (≈ 2980 µM)	1250 µg/mL (≈ 2980 µM)	1250 µg/mL (≈ 2980 µM)	2500 µg/mL (≈ 5960 µM)	250 µg/mL (≈ 596 µM)	250 µg/mL (≈ 596 µM)	4	4
CCOC(=O)C1=C(C)NC(C)=C(C(=O)OCC)C1c1ccccc1	2500 µg/mL (≈ 7590 µM)	2500 µg/mL (≈ 7590 µM)	1250 µg/mL (≈ 3790 µM)	2500 µg/mL (≈ 7590 µM)	1250 µg/mL (≈ 3790 µM)	1250 µg/mL (≈ 3790 µM)	1250 µg/mL (≈ 3790 µM)	2500 µg/mL (≈ 7590 µM)	2500 µg/mL (≈ 7590 µM)	2500 µg/mL (≈ 7590 µM)	125 µg/mL (≈ 379 µM)	125 µg/mL (≈ 379 µM)	4	4
CCOC(=O)C1=C(C)NC(C)=C(C(=O)OCC)C1c1ccc(O)c(OC)c1	125 µg/mL (≈ 333 µM)	125 µg/mL (≈ 333 µM)	125 µg/mL (≈ 333 µM)	125 µg/mL (≈ 333 µM)	125 µg/mL (≈ 333 µM)	125 µg/mL (≈ 333 µM)	125 µg/mL (≈ 333 µM)	125 µg/mL (≈ 333 µM)	125 µg/mL (≈ 333 µM)	125 µg/mL (≈ 333 µM)	31.2 µg/mL (≈ 83.2 µM)	31.2 µg/mL (≈ 83.2 µM)	4	4
